Series [1] concerns the target T1, ATP-binding cassette sub-family C member 5 (Homo sapiens, UniProt O15440). The series is described as follows: TP_TRANSPORTER: efflux in MRP5-expressing MDCKII cells. The class given is functional, cell-based. Conditions: dog, mdck-ii.
In series [2] the target is T1, ATP-binding cassette sub-family C member 5. As to the kind of experiment: TP_TRANSPORTER: inhibition of PMEA efflux (PMEA: 1 uM) in MRP5-expressing MDCKII cells. The class given is functional, cell-based, MDCK-II.

T1 sequence (O15440 whole entry): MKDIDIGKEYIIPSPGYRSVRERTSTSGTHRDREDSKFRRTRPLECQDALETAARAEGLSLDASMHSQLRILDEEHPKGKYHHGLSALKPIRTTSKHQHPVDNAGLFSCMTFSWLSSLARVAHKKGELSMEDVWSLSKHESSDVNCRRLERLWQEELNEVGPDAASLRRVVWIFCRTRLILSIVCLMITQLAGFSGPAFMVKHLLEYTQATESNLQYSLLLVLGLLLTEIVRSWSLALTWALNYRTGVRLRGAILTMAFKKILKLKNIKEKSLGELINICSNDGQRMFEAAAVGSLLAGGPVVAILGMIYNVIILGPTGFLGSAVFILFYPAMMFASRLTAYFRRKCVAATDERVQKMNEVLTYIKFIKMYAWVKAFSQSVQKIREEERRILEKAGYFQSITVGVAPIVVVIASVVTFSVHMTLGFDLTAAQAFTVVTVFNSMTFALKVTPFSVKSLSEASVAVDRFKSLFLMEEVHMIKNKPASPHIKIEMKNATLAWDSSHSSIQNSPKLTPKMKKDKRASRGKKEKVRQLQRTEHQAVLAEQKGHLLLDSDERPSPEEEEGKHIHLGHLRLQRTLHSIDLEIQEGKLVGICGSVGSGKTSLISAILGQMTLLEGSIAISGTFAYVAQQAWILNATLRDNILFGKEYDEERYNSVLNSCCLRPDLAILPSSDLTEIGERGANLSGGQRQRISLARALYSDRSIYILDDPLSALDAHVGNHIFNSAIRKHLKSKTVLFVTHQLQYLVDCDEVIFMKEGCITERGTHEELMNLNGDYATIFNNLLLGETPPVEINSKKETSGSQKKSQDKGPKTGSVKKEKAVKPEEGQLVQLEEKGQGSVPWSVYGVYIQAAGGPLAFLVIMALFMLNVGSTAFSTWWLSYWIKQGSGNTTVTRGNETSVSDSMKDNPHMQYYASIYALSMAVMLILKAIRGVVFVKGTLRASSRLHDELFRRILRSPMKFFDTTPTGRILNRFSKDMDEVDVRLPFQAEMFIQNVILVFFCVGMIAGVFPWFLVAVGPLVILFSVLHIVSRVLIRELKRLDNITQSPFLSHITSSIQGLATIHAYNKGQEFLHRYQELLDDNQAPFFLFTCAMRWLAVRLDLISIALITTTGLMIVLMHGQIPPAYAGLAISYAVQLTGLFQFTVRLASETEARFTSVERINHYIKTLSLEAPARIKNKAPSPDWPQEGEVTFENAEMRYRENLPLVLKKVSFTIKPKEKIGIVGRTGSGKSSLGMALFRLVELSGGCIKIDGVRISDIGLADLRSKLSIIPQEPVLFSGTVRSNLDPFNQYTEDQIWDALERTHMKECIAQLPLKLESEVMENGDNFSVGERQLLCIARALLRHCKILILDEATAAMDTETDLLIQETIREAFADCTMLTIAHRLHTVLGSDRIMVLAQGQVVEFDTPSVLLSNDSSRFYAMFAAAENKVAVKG

Consider `Sc1ncnc2nc[nH]c12` [MERCAPTOPURINE ANHYDROUS], for which, in series [1], the Activity entry was “substrate [+]”.
By IC50 is commonly meant the point on the concentration scale where inhibition reaches its midpoint. Read a high IC50 as lower potency. As for `O=C1C(CC[S+]([O-])c2ccccc2)C(=O)N(c2ccccc2)N1c1ccccc1` (stereo not drawn) [SULFINPYRAZONE], the IC50 in series [2] was under 100 µM.
On to `Nc1ncnc2c1ncn2CCOCP(=O)(O)O` [ADEFOVIR], for which, in series [1], the Activity entry is “substrate [+]”.

The values above are taken from ChEMBL document CHEMBL2074483, “Multidrug-resistance protein 5 is a multispecific organic anion transporter able to transport nucleotide analogs” (Proc Natl Acad Sci U S A, 2000).
